Laboratory results from article PMC6372542 (Frontiers in Pediatrics, 2019).
“And” between values parts separate entries of the source, which are not always exact repeats. Identical values can stand only once. Like-named read-outs stand apart in the source and are kept apart here.

Tests used:
[1] = Non-compartmental plasma pharmacokinetics of sertraline and N-desmethylsertraline in HIV-infected and uninfected youth (IMPAACT P1080); conditions: for C0: pre-dose plasma; for CL/F: po, non-compartmental apparent oral clearance; for concentration: read-out: Norm-C0
Description: International Maternal Pediatric Adolescent AIDS Clinical Trials Network (IMPAACT) P1080 was a multicenter, pilot study of psychiatric and antiretroviral medication concentrations in HIV-1-infected and uninfected youth.
(§1) Study procedures were standardized across multiple study arms. The single pharmacokinetic visit included a medication history, adherence survey, and a CYP2D6 phenotype assessment (the other psychotropic study medications were primarily metabolized by CYP 2D6). Participants with HIV had to be taking their antiretroviral medications consistently for at least 4 weeks prior to sampling. […] Plasma samples were drawn at pre-dose and 2, 4, 6, 12, and 24-h post-dose.
Analytes and internal standard were extracted with 600 μL of acetonitrile from 200 μL of plasma, then eluted from a Gemini C18 column in under 4 min using acetonitrile/water/formic acid (85:15:0.1, v/v/v) as the mobile phase.
The area under the concentration vs. time curve from time 0–24 h post dose (AUC0−24) was estimated using the trapezoidal rule. Apparent oral clearance (CL/F), where F is bioavailability, was calculated as dose divided by AUC0−24. The apparent volume of distribution (V/F) was determined as CL/F divided by k, where k is the terminal slope of the log plasma concentration-time curve. The half-life (t1/2) was calculated as 0.693/k. All concentration data were normalized to dose (100 mg) and to weight (70 kg). Non-compartmental parameters were estimated with Phoenix® WinNonlin® (Certara L.P. (Pharsight), St. Louis, MO). Pharmacokinetic parameters were compared between HIV(–) and PI/r cohorts with Wilcoxon rank-sum tests, two-sided with significance set to 0.05. Statistical comparisons were not made with the EFV group due to the low enrollment/accrual in this cohort (n = 3).

[2] = cited from earlier work; for half-life: adolescents, ref [17]
[3] = Sertraline population pharmacokinetics (NONMEM, one-compartment model at steady-state); type: in vivo, human; conditions: for V/F / ka: typical population value, Estimate (% SE)
Procedure: A one-compartment model at steady-state with first-order absorption and elimination best described the data (ADVAN2 TRANS2, FOCE with interaction). A combined (additive and proportional) residual error model was used. Covariates were screened individually on each pharmacokinetic parameter (CL/F, V/F, and ka). For all models, goodness of fit were assessed with diagnostic plots. All covariates that improved model fit at p < 0.05 were included in the multivariate screen.

[4] = Plasma concentrations of protease inhibitors, ritonavir and efavirenz (antiretroviral exposures); conditions: for AUC / Cmax: human, in vivo; for Clast: plasma, median (interquartile range), range for lopinavir, median (range) for efavirenz
Description: as §1
Plasma concentrations of primary protease inhibitors, ritonavir and efavirenz were measured at the University of California San Diego Pediatric Pharmacology Laboratory by validated reverse phase high performance liquid chromatography or mass spectrometry methods.

[5] = EFV cohort n = 3, median (minimum, maximum)
[6] = PI/r cohort n = 12, median (interquartile range)

With CN[C@H]1CC[C@@H](c2ccc(Cl)c(Cl)c2)c2ccccc21 [Sertraline] the “sertraline exposures lower in EFV participants than HIV(–) and PI/r groups” value ([1]; EFV cohort n = 3) was ~ 50%, the C24 ([1]; EFV cohort n = 3, 24 h post-dose, median (minimum, maximum)) was 4.2 (2.9, 5.9) ng/mL and the Tmax [1, 5] was 6 (4, 6) hr. The C0 [1, 5] was 6 ng/mL and 6.0 (3.0, 7.0) ng/mL, the “normalized trough concentrations, C0 and C24” value ([1]; HIV(-) and PI/r groups) was 18 to 33 ng/mL and the “sertraline exposure lower in the PI/r cohort than in HIV(–)” value ([1]; PI/r cohort compared to HIV(–)) was ~ 40% and 30–40%. The Tmax [1, 6] was 4 (4, 6) hr, the C0 [1, 6] was 10.0 (7.5, 15.9) ng/mL and the Tmax ([1]; human, in vivo) was 4 h. It also gave a Cmax ([1]; human, in vivo, 0.7 mg/kg, Cmax, EFV cohort n = 3, median (minimum, maximum)) of 13.2 ng/mL, a Cmax ([1]; human, in vivo, 0.9 mg/kg, Cmax, PI/r cohort n = 12, median (interquartile range)) of 34.3 ng/mL and a Cmax ([1]; human, in vivo, 1.3 mg/kg, Cmax, HIV(-) cohort n = 16, median (interquartile range)) of 46.7 ng/mL. For the same compound, the AUC(0-t) ([1]; human, in vivo, 100 mg, Norm-AUC0−24, EFV cohort n = 3, normalized to a 100 mg once daily dose and a weight of 70 kg, median (minimum, maximum)) was 473 ng·h/mL, the AUC(0-t) ([1]; human, in vivo, 100 mg, Norm-AUC0−24, HIV(-) cohort n = 16, normalized to a 100 mg once daily dose and a weight of 70 kg, median (interquartile range)) was 1180 ng·h/mL and the AUC(0-t) ([1]; human, in vivo, 100 mg, Norm-AUC0−24, PI/r cohort n = 12, normalized to a 100 mg once daily dose and a weight of 70 kg, median (interquartile range)) was 791 ng·h/mL. For the same compound, the concentration at 24 h ([1]; human, in vivo, 100 mg, Norm-C24, EFV cohort n = 3, normalized to 100 mg once daily and 70 kg, median (minimum, maximum)) was 12.8 ng/mL, the concentration at 24 h ([1]; human, in vivo, 100 mg, Norm-C24, HIV(-) cohort n = 16, normalized to 100 mg once daily and 70 kg, median (interquartile range)) was 32.7 ng/mL and the concentration at 24 h ([1]; human, in vivo, 100 mg, Norm-C24, PI/r cohort n = 12, normalized to 100 mg once daily and 70 kg, median (interquartile range)) was 20.1 ng/mL. For the same compound, the Cmax ([1]; human, in vivo, 100 mg, Norm-Cmax, EFV cohort n = 3, normalized to 100 mg once daily and 70 kg, median (minimum, maximum)) was 28.8 ng/mL, the Cmax ([1]; human, in vivo, 100 mg, Norm-Cmax, HIV(-) cohort n = 16, normalized to 100 mg once daily and 70 kg, median (interquartile range)) was 78.3 ng/mL and the Cmax ([1]; human, in vivo, 100 mg, Norm-Cmax, PI/r cohort n = 12, normalized to 100 mg once daily and 70 kg, median (interquartile range)) was 46.9 ng/mL. It also gave an AUC(0-t) ([1]; human, in vivo, AUC0−24, EFV cohort n = 3, plasma, steady state, median (minimum, maximum)) of 145 ng·h/mL, an AUC(0-t) ([1]; human, in vivo, AUC0−24, HIV(-) cohort n = 16, plasma, steady state, median (interquartile range)) of 652 ng·h/mL and an AUC(0-t) ([1]; human, in vivo, AUC0−24, PI/r cohort n = 12, plasma, steady state, median (interquartile range)) of 486 ng·h/mL. The concentration at 24 h ([1]; human, in vivo, C24, EFV cohort n = 3, 24 h post-dose, median (minimum, maximum)) was 4.2 ng/mL, the concentration at 24 h ([1]; human, in vivo, C24, HIV(-) cohort n = 16, 24 h post-dose, median (interquartile range)) was 17.5 ng/mL and the concentration at 24 h ([1]; human, in vivo, C24, PI/r cohort n = 12, 24 h post-dose, median (interquartile range)) was 12.6 ng/mL. For the same compound, the half-life ([1]; human, in vivo, T1/2, EFV cohort n = 3, median (minimum, maximum)) was 11.1 h, the half-life ([1]; human, in vivo, T1/2, HIV(-) cohort n = 16, median (interquartile range)) was 26.4 h and the half-life ([1]; human, in vivo, T1/2, PI/r cohort n = 12, median (interquartile range)) was 18.1 h. It also gave a CL/F ([1]; human, in vivo, EFV cohort n = 3, median (minimum, maximum)) of 75 mL/min/kg, a CL/F ([1]; human, in vivo, HIV(-) cohort n = 16, median (interquartile range)) of 23.3 mL/min/kg and a CL/F ([1]; human, in vivo, PI/r cohort n = 12, median (interquartile range)) of 26.7 mL/min/kg. The concentration ([1]; EFV cohort n = 3, normalized to 100 mg once daily and 70 kg, median (minimum, maximum)) was 13.1 ng/mL, the concentration ([1]; HIV(-) cohort n = 16, normalized to 100 mg once daily and 70 kg, median (interquartile range)) was 33.3 ng/mL and the concentration ([1]; PI/r cohort n = 12, normalized to 100 mg once daily and 70 kg, median (interquartile range)) was 17.8 ng/mL. For the same compound, the half-life ([2]; single dose) was 26.7 h, the half-life ([2]; steady-state) was 15.3 h and the elimination half-life ([2]; adults, children, and adolescents, ref [5]) was “about 27 h”. For the same compound, the “decrease of sertraline exposure (AUC0−24) by efavirenz” value ([2]; adults, concomitant efavirenz, ref [13]) was ~ 40%, the “AUC0−24” value ([2]; after multiple dosing in prior adult studies, normalized to a 100 mg dose, ref [20]) was 1038 to 1532 ng·h/mL and the half-life at steady-state ([2]; lower end of dose range of 50–200 mg, ref [15], [17]) was 15.3 h. The “sertraline exposure (AUC0−24 and Cmax) lower in children and adolescents” value ([2]; plasma concentration adjusted for weight, compared to adults, ref [5], [9]) was ~ 22%, the clearance ([2]; population pharmacokinetic study of geriatric patients (median age = 76 years) with Alzheimer's Disease, ref [23]) was 83.1 L/h and the “AUC0−24” value ([2]; previous pediatric studies, normalized to 100 mg dose and 70 kg weight, ref [15], [17]) was 883 to 2,535 ng·h/mL. The median sertraline trough ([2]; therapeutic drug monitoring program, 100 mg daily doses, IQR 12–30 ng/mL, ref [21]) was 20 ng/mL, the half-life at steady-state ([2]; upper end of dose range of 50–200 mg, ref [15], [17]) was 27.2 h and the “clearance higher than in geriatric population pharmacokinetic study” value ([3]; 115 L/h vs 83.1 L/h in geriatric patients with Alzheimer's Disease) was 38%. For the same compound, the V/F ([3]; base model) was 53.8 L/kg, the ka ([3]; base model) was 0.45 1/h and 0.45 (16.2) 1/h and the V/F ([3]; final model) was 44.6 L/kg. The ka ([3]; final model) was 0.42 1/h and 0.42 (14.7) 1/h and the clearance ([3]; human, plasma, oral, population model, for a typical 70 kg patient, read-out: estimated clearance (converted)) was 1920 mL/min.

With COC(=O)N[C@H](C(=O)N[C@@H](Cc1ccccc1)[C@@H](O)CN(Cc1ccc(-c2ccccn2)cc1)NC(=O)[C@@H](NC(=O)OC)C(C)(C)C)C(C)(C)C [Atazanavir] the AUC [4] was 27200 ng·h/mL, the Cmax [4] was 3800 ng/mL and the Clast [4] was 1.2 (0.9, 2.6) μg/mL.

In the case of CC(C)c1nc(CN(C)C(=O)N[C@H](C(=O)N[C@@H](Cc2ccccc2)C[C@H](O)[C@H](Cc2ccccc2)NC(=O)OCc2cncs2)C(C)C)cs1 [Ritonavir], the AUC [4] is reported as 4900 ng·h/mL, the Cmax [4] is reported as 600 ng/mL and the Clast [4] is reported as 0.2 (0.1, 0.4) μg/mL.

With O=C1Nc2ccc(Cl)cc2[C@@](C#CC2CC2)(C(F)(F)F)O1 [Efavirenz] the AUC [4] was 24500 ng·h/mL, the Cmax [4] was 1300 ng/mL and the Clast [4] was 1.3 (1.3, 3.4) μg/mL.

In the case of N[C@H]1CC[C@@H](c2ccc(Cl)c(Cl)c2)c2ccccc21 [N-desmethylsertraline], the elimination half-life ([2]; metabolite, ref [5]) is given as 62 to 104 h.
